Measured values as given in paper PMC5415745, “Drug-transporter mediated interactions between anthelminthic and antiretroviral drugs across the Caco-2 cell monolayers” (BMC Pharmacology & Toxicology, 2017).
Several values for one entry are separate records, joined by “and”; a condition that tells them apart may be missing. Equal entries are not always repeated.

How the values were obtained:
in vitro = details: human, Mean
Method: (§1) The monolayers used were of between passage 20 and 65 after 15 days of growth. Each experiment was performed in duplicate using two six well-transwell culture plates. The cells were trypsinized as described earlier, and after centrifugation the pellet re-suspended in fresh DMEM (+15%), and the cells counted using a cell counter. A volume of DMEM was added enough to give a cell count of 2 × 10^6 cells per ml, and cells were seeded on the transwell culture plates at a density of 2 × 10^4 cells/cm^2 (~ 100,000 cells per well, since insert membrane growth area = 4.67 cm^2). The plates were then incubated at 37°C and 10% CO2 in a humidified chamber and the media changed every 2-3 days, by aspirating using a suction pump and replacing with an equal volume of DMEM. Transport experiments were conducted 15 to 20 days after seeding. The TEER across the cell monolayers was monitored using a Millicell-ERS in order to assess cell monolayer integrity and the monolayers considered appropriate for the experiment when the TEER values were typically above 500 cm^2 [49, 70].
(§2) Prior to transport studies, each monolayer was washed and equilibrated with the transport medium (DMEM without FBS). The medium was removed from all AP and BL compartments of the transwells and replaced with 2 ml of the transport medium (DMEM alone), to both compartments and equilibrated for 1 h (37°C, 10% CO2 incubator), after which the TEER was re-assessed and labeled. The medium was then removed from both compartments and replaced with an equal volume of pre-warmed medium containing the compound of interest at the appropriate concentration. For the AP → BL transport, 2 ml of medium containing the desired drug was placed in the AP chamber and 2 ml of the medium alone in the BL chamber, whereas 2 ml of medium containing the drug was placed in the BL and 2 ml of medium on the AP chamber for the BL → AP transport [71]. The effect of the second drug was then assessed by adding the medium containing the original drug and the drug under study to the AP side for AP → BL transport with the medium containing the original drug alone in the BL chamber, and vice-versa for the BL → AP transport. Transport in each direction was done in triplicate. The transwell plates were then incubated (37°C, 10% CO2 incubator), and 100μl of the samples from the AP and BL compartments were taken at 60, 120, 180 and 240 min and quantified either by HPLC method described earlier [45], or by the use of a liquid scintillating counter depending on the drug under study. The HPLC method involved liquid - liquid extraction followed by ultra-high performance liquid chromatography using a Hypurity C18 column and ultraviolet detection set at a wavelength of 215 nm. The mobile phase consisted of ammonium formate, acetonitrile and methanol (57:38:5 v/v). Separation was facilitated via isocratic elution at a flow rate of 1.5 ml/min. For HPLC assays, the concentration used for each drug was 20μg/ml. The concentrations that offered the best detection were selected for radiolabeled assay. […] The integrity of the CCM during the experiment was monitored by measuring the TEER at the beginning (0 min) and the end of the experiment (240min).
(§3) The results were expressed as apparent permeability coefficient (Papp, unit: cms^-1), the amount of compound transported per second. Papp values were calculated for both AP to BL (PappAtoB), and BL to AP (PappBtoA) movement of the compound. Papp was calculated using the following equation [52, 72]: • Papp (cm/s) = (dQ/dt) x (1/(ACO) • dQ/dt = Steady-state flux (dpm s^-1 or μmol s^-1) • A = Surface area of the filter (cm^2) • CO = Initial concentration in the donor chamber (dpm litre ^-1 or μM)
(§4) The quotient of secretory permeability and absorptive permeability (PappBL-AP/PappAP-BL) constitutes the efflux ratio, while the reverse (PappAP-BL/PappBL-AP) is the uptake ratio [71].

Caco-2 cell monolayers = test: Bidirectional (AP→BL, BL→AP) drug transport across Caco-2 cell monolayers in transwells: cumulative transport, Papp, efflux ratio; HPLC or radiolabeled assay; details: for Basal to apical transport (cumulative, receiver): individual samples 1-3; for PappAB / PappBA: individual samples; for Apical to basal transport / Basal to apical transport: samples 1-3
Method: as §1, §2, §3, §4

P-gp = details: CEM parental and CEMVBL cells; cited from earlier work
[1] = PZQ alone (EFV experiment), 60 min
[2] = PZQ alone (EFV experiment), 120 min, mean
[3] = PZQ alone (EFV experiment), 120 min
[4] = PZQ alone (EFV experiment), 180 min, mean
[5] = PZQ alone (EFV experiment), 180 min
[6] = PZQ alone (EFV experiment), 240 min, mean
[7] = PZQ alone (EFV experiment), 240 min
[8] = PZQ alone (NVP experiment), 60 min, mean
[9] = PZQ alone (NVP experiment), 60 min
[10] = PZQ alone (NVP experiment), 120 min, mean
[11] = PZQ alone (NVP experiment), 120 min
[12] = PZQ alone (NVP experiment), 180 min, mean
[13] = PZQ alone (NVP experiment), 180 min
[14] = PZQ alone (NVP experiment), 240 min, mean
[15] = PZQ alone (NVP experiment), 240 min
[16] = PZQ alone (SQV experiment), 60 min, mean
[17] = PZQ alone (SQV experiment), 60 min
[18] = PZQ alone (SQV experiment), 120 min, mean
[19] = PZQ alone (SQV experiment), 120 min
[20] = PZQ alone (SQV experiment), 180 min, mean
[21] = PZQ alone (SQV experiment), 180 min
[22] = PZQ alone (SQV experiment), 240 min, mean
[23] = PZQ alone (SQV experiment), 240 min
[24] = PZQ alone (SQV experiment), after 60min
[25] = PZQ alone (SQV experiment), after 60min, mean
[26] = labelled drug is the interacting drug

In the case of O=C(C1CCCCC1)N1CC(=O)N2CCc3ccccc3C2C1 (centres unmarked) [PZQ, praziquantel], the Papp A→B at 7200 sec (in vitro; Caco-2, PappAB) was 63.8 ×10⁻⁶ cm/s, the Papp A→B at 10800 sec (in vitro; Caco-2, PappAB) was 57.7 ×10⁻⁶ cm/s and the Papp A→B at 14400 sec (in vitro; Caco-2, PappAB) was 53.9 ×10⁻⁶ cm/s. For the same compound, the Papp B→A at 7200 sec (in vitro; Caco-2, PappBA) was 57.2 ×10⁻⁶ cm/s, the Papp B→A at 10800 sec (in vitro; Caco-2, PappBA) was 47.9 ×10⁻⁶ cm/s and the Papp B→A at 14400 sec (in vitro; Caco-2, PappBA) was 49.6 ×10⁻⁶ cm/s. The “Basal to apical transport (cumulative, receiver)” value (Caco-2 cell monolayers; 60 min) was 16.40 pmol and 16.26 pmol and 17.14 pmol, the “Apical to basal transport (cumulative, receiver), Mean” value (Caco-2 cell monolayers; 60 min, mean n=3) was 15.06 pmol and the “Basal to apical transport (cumulative, receiver), Mean” value (Caco-2 cell monolayers; 60 min, mean n=3) was 16.60 pmol. The PappAB (Caco-2 cell monolayers; 3600 sec) was 89.9 ×10⁻⁶ cm/s and 62.5 ×10⁻⁶ cm/s and 76.8 ×10⁻⁶ cm/s, the PappBA (Caco-2 cell monolayers; 3600 sec) was 84.6 ×10⁻⁶ cm/s and 77.5 ×10⁻⁶ cm/s and 95.4 ×10⁻⁶ cm/s and the “PappAB Mean” value (Caco-2 cell monolayers; 3600 sec, mean n=3) was 76.4 ×10⁻⁶ cm/s. The “PappBA Mean” value (Caco-2 cell monolayers; 3600 sec, mean n=3) was 85.8 ×10⁻⁶ cm/s, the “Basal to apical transport (cumulative, receiver)” value (Caco-2 cell monolayers; 120 min) was 20.68 pmol and 19.96 pmol and 21.78 pmol and the “Apical to basal transport (cumulative, receiver), Mean” value (Caco-2 cell monolayers; 120 min, mean n=3) was 22.74 pmol. The “Basal to apical transport (cumulative, receiver), Mean” value (Caco-2 cell monolayers; 120 min, mean n=3) was 20.81 pmol, the PappAB (Caco-2 cell monolayers; 7200 sec) was 65.5 ×10⁻⁶ cm/s and 65.7 ×10⁻⁶ cm/s and 60.2 ×10⁻⁶ cm/s and the PappBA (Caco-2 cell monolayers; 7200 sec) was 56.2 ×10⁻⁶ cm/s and 57.9 ×10⁻⁶ cm/s and 57.5 ×10⁻⁶ cm/s. The “Basal to apical transport (cumulative, receiver)” value (Caco-2 cell monolayers; 180 min) was 26.18 pmol and 23.22 pmol, the “Apical to basal transport (cumulative, receiver), Mean” value (Caco-2 cell monolayers; 180 min, mean n=3) was 27.30 pmol and the “Basal to apical transport (cumulative, receiver), Mean” value (Caco-2 cell monolayers; 180 min, mean n=3) was 23.94 pmol. For the same compound, the PappAB (Caco-2 cell monolayers; 10800 sec) was 58.3 ×10⁻⁶ cm/s and 51.6 ×10⁻⁶ cm/s and 63.2 ×10⁻⁶ cm/s, the PappBA (Caco-2 cell monolayers; 10800 sec) was 56.6 ×10⁻⁶ cm/s and 41.1 ×10⁻⁶ cm/s and 46 ×10⁻⁶ cm/s and the “Basal to apical transport (cumulative, receiver)” value (Caco-2 cell monolayers; 240 min) was 26.24 pmol and 28.48 pmol and 32.82 pmol. For the same compound, the “Apical to basal transport (cumulative, receiver), Mean” value (Caco-2 cell monolayers; 240 min, mean n=3) was 32.95 pmol, the “Basal to apical transport (cumulative, receiver), Mean” value (Caco-2 cell monolayers; 240 min, mean n=3) was 29.18 pmol and the PappAB (Caco-2 cell monolayers; 14400 sec) was 54.4 ×10⁻⁶ cm/s and 52 ×10⁻⁶ cm/s and 55.5 ×10⁻⁶ cm/s. The PappBA (Caco-2 cell monolayers; 14400 sec) was 50.1 ×10⁻⁶ cm/s and 43.3 ×10⁻⁶ cm/s and 55.4 ×10⁻⁶ cm/s, the “Basal to apical transport Mean” value (Caco-2 cell monolayers; PZQ alone (EFV experiment), 60 min, mean) was 26.40 pmol and the “Apical to basal transport” value (Caco-2 cell monolayers; [1]) was 33.50 pmol and 22.28 pmol and 39.18 pmol. The “Basal to apical transport” value (Caco-2 cell monolayers; [1]) was 25.94 pmol and 27.98 pmol and 25.28 pmol, the “Apical to basal transport Mean” value (Caco-2 cell monolayers; [2]) was 37.71 pmol and the “Basal to apical transport Mean” value (Caco-2 cell monolayers; [2]) was 46.61 pmol. The “Apical to basal transport” value (Caco-2 cell monolayers; [3]) was 45.74 pmol and 32.50 pmol and 34.88 pmol, the “Basal to apical transport” value (Caco-2 cell monolayers; [3]) was 49.34 pmol and 35.84 pmol and 54.66 pmol and the “Apical to basal transport Mean” value (Caco-2 cell monolayers; [4]) was 54.47 pmol. For the same compound, the “Basal to apical transport Mean” value (Caco-2 cell monolayers; [4]) was 58.63 pmol, the “Apical to basal transport” value (Caco-2 cell monolayers; [5]) was 46.84 pmol and 53.00 pmol and 63.58 pmol and the “Basal to apical transport” value (Caco-2 cell monolayers; [5]) was 53.14 pmol and 51.00 pmol and 71.74 pmol. For the same compound, the “Apical to basal transport Mean” value (Caco-2 cell monolayers; [6]) was 71.45 pmol, the “Basal to apical transport Mean” value (Caco-2 cell monolayers; [6]) was 67.31 pmol and the “Apical to basal transport” value (Caco-2 cell monolayers; [7]) was 50.62 pmol and 68.96 pmol and 94.76 pmol. The “Basal to apical transport” value (Caco-2 cell monolayers; [7]) was 74.78 pmol and 75.20 pmol, the “Apical to basal transport Mean” value (Caco-2 cell monolayers; [8]) was 23.43 pmol and the “Basal to apical transport Mean” value (Caco-2 cell monolayers; [8]) was 25.07 pmol. The “Apical to basal transport” value (Caco-2 cell monolayers; [9]) was 22.50 pmol and 22.28 pmol and 25.50 pmol, the “Basal to apical transport” value (Caco-2 cell monolayers; [9]) was 23.94 pmol and 25.98 pmol and 25.28 pmol and the “Apical to basal transport Mean” value (Caco-2 cell monolayers; [10]) was 39.93 pmol. For the same compound, the “Basal to apical transport Mean” value (Caco-2 cell monolayers; [10]) was 49.95 pmol, the “Apical to basal transport” value (Caco-2 cell monolayers; [11]) was 34.88 pmol and 39.18 pmol and 45.74 pmol and the “Basal to apical transport” value (Caco-2 cell monolayers; [11]) was 49.34 pmol and 45.84 pmol and 54.66 pmol. The “Apical to basal transport Mean” value (Caco-2 cell monolayers; [12]) was 50.15 pmol, the “Basal to apical transport Mean” value (Caco-2 cell monolayers; [12]) was 54.69 pmol and the “Apical to basal transport” value (Caco-2 cell monolayers; [13]) was 46.84 pmol and 53.00 pmol and 50.62 pmol. For the same compound, the “Basal to apical transport” value (Caco-2 cell monolayers; [13]) was 53.14 pmol and 59.00 pmol, the “Apical to basal transport Mean” value (Caco-2 cell monolayers; [14]) was 69.10 pmol and the “Basal to apical transport Mean” value (Caco-2 cell monolayers; [14]) was 73.24 pmol. The “Apical to basal transport” value (Caco-2 cell monolayers; [15]) was 63.58 pmol and 68.96 pmol and 74.76 pmol, the “Basal to apical transport” value (Caco-2 cell monolayers; [15]) was 65.74 pmol and 78.78 pmol and 75.20 pmol and the “Apical to basal transport Mean” value (Caco-2 cell monolayers; [16]) was 15.06 pmol. For the same compound, the “Basal to apical transport Mean” value (Caco-2 cell monolayers; [16]) was 16.60 pmol, the “Apical to basal transport” value (Caco-2 cell monolayers; [17]) was 16.68 pmol and 13.02 pmol and 15.48 pmol and the “Basal to apical transport” value (Caco-2 cell monolayers; [17]) was 16.40 pmol and 16.26 pmol and 17.14 pmol. The “Apical to basal transport Mean” value (Caco-2 cell monolayers; [18]) was 22.74 pmol, the “Basal to apical transport Mean” value (Caco-2 cell monolayers; [18]) was 20.81 pmol and the “Apical to basal transport” value (Caco-2 cell monolayers; [19]) was 22.40 pmol and 22.80 pmol and 23.02 pmol. For the same compound, the “Basal to apical transport” value (Caco-2 cell monolayers; [19]) was 19.96 pmol and 21.78 pmol and 20.68 pmol, the “Apical to basal transport Mean” value (Caco-2 cell monolayers; [20]) was 27.30 pmol and the “Basal to apical transport Mean” value (Caco-2 cell monolayers; [20]) was 23.94 pmol. For the same compound, the “Apical to basal transport” value (Caco-2 cell monolayers; [21]) was 28.02 pmol, the “Basal to apical transport” value (Caco-2 cell monolayers; [21]) was 26.18 pmol and 23.22 pmol and the “Apical to basal transport Mean” value (Caco-2 cell monolayers; [22]) was 32.95 pmol. The “Basal to apical transport Mean” value (Caco-2 cell monolayers; [22]) was 29.18 pmol, the “Apical to basal transport” value (Caco-2 cell monolayers; [23]) was 30.94 pmol and 32.48 pmol and 35.44 pmol and the “Basal to apical transport” value (Caco-2 cell monolayers; [23]) was 26.24 pmol and 28.48 pmol and 32.82 pmol. For the same compound, the PappAB (Caco-2 cell monolayers; [24]) was 8.99 ×10⁻⁶ cm/s and 6.25 ×10⁻⁶ cm/s and 7.68 ×10⁻⁶ cm/s, the PappBA (Caco-2 cell monolayers; [24]) was 8.46 ×10⁻⁶ cm/s and 7.75 ×10⁻⁶ cm/s and 9.54 ×10⁻⁶ cm/s and the PappAB Mean (Caco-2 cell monolayers; [25]) was 7.64 ×10⁻⁶ cm/s. The PappBA Mean (Caco-2 cell monolayers; [25]) was 8.58 ×10⁻⁶ cm/s, the PappAB (Caco-2 cell monolayers; PZQ alone, MOESM4) was 89.9 ×10⁻⁶ cm/s and 62.5 ×10⁻⁶ cm/s and 76.8 ×10⁻⁶ cm/s and the PappBA (Caco-2 cell monolayers; PZQ alone, MOESM4) was 84.6 ×10⁻⁶ cm/s and 77.5 ×10⁻⁶ cm/s and 95.4 ×10⁻⁶ cm/s. For the same compound, the “ER Mean” value (Caco-2 cell monolayers; PZQ alone, mean, MOESM4) was 1.14, the “PappAB Mean (x10^6)” value (Caco-2 cell monolayers; PZQ alone, mean, MOESM4) was 7.64 x10^6 cm/s and the “Effect on the (efflux) transport of SQV” value (Caco-2 cell monolayers; [26]) was “did not alter”. For the same compound, the “Effect on the transport of ARVs” value (Caco-2 cell monolayers; [26]) was “did not appear to significantly influence” and the “P-gp substrate / inhibitor status” value (P-gp) was “neither a substrate nor an inhibitor of P-gp”.
